Experimental data published in PubChem BioAssay AID651672 (The Scripps Research Institute Molecular Screening Center, 2012).
Calls of active or inactive are those of the source. No rule for the calls is given here.

biological target: Perilipin-1 (Homo sapiens) (UniProt O60240); test: ABHD5 and perilipin-1 interaction blockers – biochemical, luminescence, counter-screen for ABHD5-PLIN5 interaction inhibitor project, dose response (AID 651672); details: ABHD5-PLIN1 interaction;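 also: split Gaussia luciferase complementation between ABHD5 and PLIN1 fusion fragments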
Sequence (O60240 whole entry, looked up, the tested form may be a part): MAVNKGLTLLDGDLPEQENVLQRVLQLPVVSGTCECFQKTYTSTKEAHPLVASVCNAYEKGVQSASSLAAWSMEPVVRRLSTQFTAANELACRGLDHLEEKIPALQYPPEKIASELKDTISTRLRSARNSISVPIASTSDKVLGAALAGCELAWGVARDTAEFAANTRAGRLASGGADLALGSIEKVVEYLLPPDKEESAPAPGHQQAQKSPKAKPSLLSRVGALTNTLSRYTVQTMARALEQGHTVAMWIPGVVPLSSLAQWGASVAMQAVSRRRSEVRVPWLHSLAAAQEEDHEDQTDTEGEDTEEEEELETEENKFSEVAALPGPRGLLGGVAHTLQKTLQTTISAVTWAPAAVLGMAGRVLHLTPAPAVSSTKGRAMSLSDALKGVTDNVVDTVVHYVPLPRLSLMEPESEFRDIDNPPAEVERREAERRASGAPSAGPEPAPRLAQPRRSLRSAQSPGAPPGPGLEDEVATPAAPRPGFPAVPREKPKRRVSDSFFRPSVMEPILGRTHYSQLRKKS

Row | SMILES | IC50
1 | C#CCN(C[C@@H]1[C@@H](OC(=O)Nc2cccs2)[C@@H](OC(=O)Nc2cccs2)Cn2c(=O)ccc(=O)n21)S(=O)(=O)c1ccc(C)cc1 | 2.33 µM
2 | COc1ccccc1/C=C/C(=O)c1ccccc1 | 6.05 µM
3 | O=c1[nH]c(C2CCN(S(=O)(=O)c3ccc(F)cc3)CC2)nc2c1nnn2Cc1ccc2c(c1)OCCO2 | inactive
4 | O=C(NC1CCCCC1)C(c1ccccc1)n1c(=O)c(-c2ccco2)nc2ccccc21 (stereo not drawn) | 0.964 µM
5 | COc1ccc(NC(=O)C(c2ccc(C#N)cc2)n2c(=O)c(-c3ccco3)nc3ccccc32)cc1 (stereo not drawn) | inactive
6 | CCC(C(=O)OCCN(CC)CC)c1ccccc1 (stereo not drawn) | 2.53 µM
7 | CC(O)CC(=O)OC[C@]12CC[C@H]3[C@@](C)(CC[C@H]4C(C)(C)CCC[C@]34C)[C@@H]1CC(C1=CC(=O)OC1O)O2 (stereo partly drawn) | 1.25 µM
8 | CC(C)c1nnc(NC(=O)c2nc(S(=O)(=O)Cc3ccc(F)cc3)ncc2Cl)s1 | 2.83 µM
9 | CCC(=O)Nc1cccc(C(=O)/C=C/c2ccccc2)c1 | 1.99 µM
10 | Cc1ccc(S(=O)(=O)N2C[C@@]3(O)Cn4c(=O)ccc(=O)n4C[C@@]3(OC(=O)NCC3CCCCC3)C2)cc1 | 6.22 µM
11 | CC(=O)OCC1=C(C(=O)O)N2C(=O)C(NC(=O)CCn3nc(C(F)(F)F)c(Br)c3C3CC3)C2SC1 (stereo not drawn) | 8.15 µM
12 | N#Cc1ccccc1OCc1cn(CC(=O)c2ccc(O)cc2)nn1 | 4.12 µM
13 | CCCC(=O)NC(c1cccc([N+](=O)[O-])c1)c1ccc2cccnc2c1O (stereo not drawn) | > 39.8 µM (inactive)
14 | CC(=O)Oc1ccc(C23c4ccccc4C2(OC(C)=O)c2cc(OC(C)=O)ccc23)cc1 (stereo not drawn) | 0.581 µM
15 | CC(C)(C)NC(=O)C(c1ccccc1F)n1c(=O)c(-c2ccco2)nc2ccccc21 (stereo not drawn) | 2.27 µM
16 | O=C(/C=C/Sc1ccccc1)c1ccc(Cl)cc1 | 3.81 µM
17 | CCSc1ccc2c(c1)N(CCCN1CCN(C)CC1)c1ccccc1S2 | 6.35 µM
18 | O=C(Cn1c(=O)n(Cc2ccco2)c(=O)c2c3c(sc21)CCCC3)Nc1ccccc1 | 8.69 µM
19 | CN1C(=O)/C(=C/C=C/c2ccco2)C(=O)NC1=S | 5.88 µM
20 | O=c1c(-c2ccco2)nc2ccccc2n1C(CCc1ccccc1)c1nc2ccccc2[nH]1 (stereo not drawn) | 2.32 µM
21 | CN1[C@@H]2CC[C@H]1CC(OC1c3ccccc3CCc3ccccc31)C2 (stereo partly drawn) | 1.92 µM
22 | CC(C)(C)NC(=O)C(c1ccc(C(F)(F)F)cc1)n1c(=O)c(-c2ccco2)nc2ccccc21 (stereo not drawn) | 2.69 µM
23 | COc1ccccc1C=CC(=O)C=Cc1ccccc1OC | 5.34 µM
24 | O=C(NC1CCCCC1)C(c1ccnc2ccccc12)n1c(=O)c(-c2ccco2)nc2ccccc21 (stereo not drawn) | 2.25 µM

Row | SMILES | IC50
25 | COc1ccc(NC(=O)c2cc3ccccc3cc2O)cc1 | inactive
26 | O=S(=O)(NC1=NCCCCC1)c1ccc2sc(NS(=O)(=O)c3ccc4ccccc4c3)nc2c1 | inactive
27 | Cc1ccc(C)c(/C=C/C(=O)c2ccccc(=O)c2O)c1 | 5.58 µM
28 | O=C(NCc1ccccc1)C(c1cc2ccccc2o1)n1c(=O)c(-c2ccco2)nc2ccccc21 (stereo not drawn) | 2.31 µM
29 | COc1ccc(NC(=O)C(c2ccccc2)n2c(=O)c(-c3ccco3)nc3ccccc32)cc1 (stereo not drawn) | 8.47 µM
30 | CC1Sc2ccc(S(=O)(=O)N3CCC(C(=O)NCc4ccc(Cl)cc4)CC3)cc2NC1=O (stereo not drawn) | 8.37 µM
31 | CCCCNC(=O)Nc1ccc2c(c1)N(C)C(=O)c1ccccc1S2 | 3.19 µM
32 | CC1CN(Cc2c(O)ccc3c2oc(=O)c2ccccc23)CC(C)O1 (stereo not drawn) | 2.92 µM
33 | CCN1CCN(Cc2ccc(NC(=O)c3ccc(C)c(/C=C/c4cnc(Nc5cc(N6CCNCC6)nc(C)n5)cn4)c3)cc2C(F)(F)F)CC1 | 3.42 µM
34 | COc1cc2c(cc1OC)C(C)N(CCc1ccc(Cl)cc1)CC2 (stereo not drawn) | inactive
35 | O=C(NCc1ccccc1)C(C1CC1)n1c(=O)c(-c2ccco2)nc2ccccc21 (stereo not drawn) | 6.05 µM
36 | CCCCCNC(=O)C(c1cccc2ccccc12)n1c(=O)c(-c2ccco2)nc2ccccc21 (stereo not drawn) | 2.01 µM
37 | Cc1cccc(C)c1OCc1cn(CC(=O)c2ccc(O)cc2)nn1 | 2.98 µM
38 | CCN(CC)CCN(CC(=O)Nc1c(C)cc(C)cc1C)C(=O)c1ccccc1 | inactive
39 | CCCCCCC=C1CCC(CN2CCCC2)C1=O (stereo not drawn) | 1.37 µM
40 | O=C(C[n+]1cccc(CNC(=O)c2ccc(OC(F)F)cc2)c1)Nc1cccc(C(F)(F)F)c1 | inactive
41 | Oc1ccc2sc(-c3ccccc3O)c(-c3ccc(OCCN4CCCCC4)cc3)c2c1 | 7.15 µM
42 | Cc1nc(-c2ccccc2)sc1C(=O)/C=C/c1ccccc1 | 2.77 µM
43 | O=C1NC(=O)N(Cc2ccc(F)cc2)C(=O)/C1=C\C=C\c1ccco1 | 1.69 µM
44 | Cc1cc(C)c(NC(=O)CN2CCN3CCCC3C2)c(C)c1 (stereo not drawn) | inactive
45 | COc1ccc(OCc2cn(CC(=O)c3ccc(O)cc3)nn2)cc1 | 3.77 µM
46 | Cc1ccc2nc3cc([N+](=O)[O-])cc([N+](=O)[O-])c3cc2c1 | 0.801 µM
47 | O=C(/C(=C/O)N=Nc1ccc(Cl)cc1)c1ccncc1 | 7.4 µM
48 | CN1CCC[C@@H]1CCO[C@](C)(c1ccccc1)c1ccc(Cl)cc1 | inactive

Row | SMILES | IC50
49 | CN(C)CCOC1(Cc2ccc(F)cc2)CCC(C(C)(C)C)CC1 (stereo not drawn) | 9.95 µM
50 | NC(=O)CCN1CCN(CCOC2Cc3cc(Cl)ccc3Sc3ccccc32)CC1 (stereo not drawn) | inactive
51 | O=C(NCc1ccccc1)C(c1ccc(C(F)(F)F)cc1)n1c(=O)c(-c2ccco2)nc2ccccc21 (stereo not drawn) | 1.59 µM
52 | NC(=O)C(C(=O)/C=C/c1ccc(Cl)cc1)=C1SCCS1 | inactive
53 | Cc1cccc(NC(=O)CSc2nnc(-c3ccco3)c(-c3ccco3)n2)c1 | 1.92 µM
54 | COc1ccc(C(C(=O)NCc2ccccc2)n2c(=O)c(-c3ccco3)nc3ccccc32)cc1 (stereo not drawn) | 2.17 µM
55 | FC(F)(F)c1cccc(NC(=S)N(CCCN2CCCC2)Cc2cccn2Cc2ccc(Cl)cc2)c1 | inactive
56 | COc1cc(OC)cc(C(=O)NC(=S)N(Cc2ccccc2)C(C)C)c1 | inactive
57 | Cc1cccc(C)c1NC(=O)C(c1ccncc1)n1c(=O)c(-c2ccco2)nc2ccccc21 (stereo not drawn) | 7.15 µM
58 | COC(=O)c1cc(=O)n(-c2ccc(F)cc2)c(=Nc2ccc(F)cc2)s1 | 2.5 µM
59 | CCC(C)NC(=O)Nc1ccc2c(c1)N(C)C(=O)c1ccccc1S2 (stereo not drawn) | 3.7 µM
60 | CC1(C)C2CCC(CN=C(N)CSS(=O)(=O)O)C1C2 (stereo not drawn) | 4.29 µM
61 | Cc1oc2c(c1C(=O)c1ccc(Cl)cc1)C(=O)C(=O)c1ccccc1-2 | 3.99 µM
62 | CCOC(=O)c1c(NC(C)=O)sc2c1CCC(C=O)=C2Sc1ccccc1 | 3.11 µM
63 | CCN(CC)CCOc1ccc(/C(=C(\Cl)c2ccccc2)c2ccccc2)cc1 | 2.23 µM
64 | CC1=CC(C)(C)Nc2ccc(OC(=O)CN3C(=O)C4CCCCC4C3=O)cc21 (stereo not drawn) | 2.3 µM
65 | COc1cc(C)c2sc3ccccc3c(=O)c2c1NCCN(C)C | 6.3 µM
66 | CN1CCC(=C2c3ccccc3CC(=O)c3sccc32)CC1 | inactive
67 | O=C(CF)N(O)c1ccc(C=Cc2ccccc2)cc1 | > 13.3 µM (inactive)
68 | CCOC(=O)C1C(OC(=O)c2ccccc2)CC2CCC1N2C (stereo not drawn) | inactive
69 | O=c1nc(/C=C/c2ccc(Cl)cc2Cl)cc(C(F)(F)F)[nH]1 | 2.94 µM
70 | C=CC(=O)N1c2ccccc2Sc2ccc(NC(=O)OCC)cc21 | 5.01 µM
71 | Cc1cccc(C)c1NC(=O)C(c1ccccc1)n1c(=O)c(-c2ccco2)nc2ccccc21 (stereo not drawn) | 3.37 µM
72 | Cc1nnc(NC(=O)c2nc(S(=O)(=O)Cc3ccccc3C)ncc2Cl)s1 | 3.92 µM

Row | SMILES | IC50
73 | COCCNC(=O)/C(C#N)=C/c1cccc(/C=C(\C#N)C(=O)NCCOC)c1 | 0.804 µM
74 | CCc1nnc(NC(=O)c2nc(S(=O)(=O)Cc3ccccc3)ncc2Cl)s1 | 4.25 µM
75 | Cc1cccc(C)c1NC(=O)C(c1ccccc1F)n1c(=O)c(-c2ccco2)nc2ccccc21 (stereo not drawn) | 2.81 µM
76 | COc1ccc(NC(=S)N(CCCN2CCCC2)Cc2cccn2Cc2ccc(Cl)cc2)cc1Cl | inactive
77 | C#CCN(C[C@@H]1[C@@H](OC(=O)NCC2CCCCC2)[C@@H](OC(=O)NCC2CCCCC2)Cn2c(=O)ccc(=O)n21)S(=O)(=O)c1ccc(C)cc1 | 4.76 µM
78 | O=[N+]([O-])/C=C/c1cn(Cc2ccc(F)cc2)c2ccccc12 | 7.46 µM
79 | CC1=CC(C)(C)Nc2ccc(OC(=O)C(C)N3C(=O)c4ccccc4C3=O)cc21 (stereo not drawn) | 1.82 µM
80 | CC(C)(C)NC(=O)C(c1ccc(-c2ccccc2)cc1)n1c(=O)c(-c2ccco2)nc2ccccc21 (stereo not drawn) | 1.67 µM
81 | COc1cc(/C=C/C(=O)c2ccc(Cl)s2)cc(OC)c1O | 4.59 µM
82 | CCC(c1nc2ccccc2[nH]1)n1c(=O)c(-c2ccco2)nc2ccccc21 (stereo not drawn) | 3.97 µM
83 | CC(c1nc2ccccc2[nH]1)n1c(=O)c(-c2ccco2)nc2ccccc21 (stereo not drawn) | 3.37 µM
84 | O=C(NC1CCCCC1)C(c1ccccc1F)n1c(=O)c(-c2ccco2)nc2ccccc21 (stereo not drawn) | 1.9 µM
85 | CN(C)CCCN(C(=O)CCc1ccccc1)c1nc2ccc(Br)cc2s1 | 8.53 µM
86 | O=C(NC1CCCCC1)C(c1ccc(-c2ccccc2)cc1)n1c(=O)c(-c2ccco2)nc2ccccc21 (stereo not drawn) | 1.88 µM
87 | Cc1ccc(S(=O)(=O)N2C[C@H]3n4c(=O)ccc(=O)n4C[C@H](OC(=O)Nc4cccs4)[C@@]3(O)C2)cc1 | 6.5 µM
88 | CCCCCNC(=O)C(c1ccc(OC)cc1)n1c(=O)c(-c2ccco2)nc2ccccc21 (stereo not drawn) | 1.41 µM
89 | COc1ccc(/C=C/C(=O)c2cc(F)ccc2OC(=O)c2ccc(OC)c(OC)c2)cc1OC | 2.44 µM
90 | CCC1(C)N=C(c2ccc3c(c2)OCO3)CC(c2ccccc2O)N1 (stereo not drawn) | 1.06 µM
91 | C=C[C@]1(C)C[C@@H](OC(=O)CSCCN(CC)CC)[C@]2(C)C(C)CC[C@]3(CCC(=O)[C@H]32)[C@@H](C)[C@@H]1O (stereo partly drawn) | inactive
92 | COCCN(CCOC)c1nc(N)c2c(N)nc3c(c2c1C#N)CC(=O)N3Cc1ccc(Cl)cc1 | 6.57 µM
93 | CSc1nnc(NC(=O)c2nc(S(=O)(=O)Cc3ccccc3)ncc2Cl)s1 | 3.27 µM
